From ChEMBL document CHEMBL2034849, “Discovery of a Potent Dihydrooxadiazole Series of Non-ATP-Competitive MK2 (MAPKAPK2) Inhibitors” (ACS Med Chem Lett, 2012) come the findings set out here.

Data set [1] addresses T1, MAP kinase-activated protein kinase 2 (Homo sapiens, UniProt P49137). In words: Inhibition of MK2 using 5TAMRA-KKLNRTLSVA-COOH as substrate incubated for 30 mins prior to substrate addition measured after 30 mins by immobilized metal ion affinity-based fluorescence polarization assay in presence of 100 uM ATP. A general note: Polarisation of emitted light reports the rotation of a fluorescent probe.
Target sequence in this assay (P49137 whole entry): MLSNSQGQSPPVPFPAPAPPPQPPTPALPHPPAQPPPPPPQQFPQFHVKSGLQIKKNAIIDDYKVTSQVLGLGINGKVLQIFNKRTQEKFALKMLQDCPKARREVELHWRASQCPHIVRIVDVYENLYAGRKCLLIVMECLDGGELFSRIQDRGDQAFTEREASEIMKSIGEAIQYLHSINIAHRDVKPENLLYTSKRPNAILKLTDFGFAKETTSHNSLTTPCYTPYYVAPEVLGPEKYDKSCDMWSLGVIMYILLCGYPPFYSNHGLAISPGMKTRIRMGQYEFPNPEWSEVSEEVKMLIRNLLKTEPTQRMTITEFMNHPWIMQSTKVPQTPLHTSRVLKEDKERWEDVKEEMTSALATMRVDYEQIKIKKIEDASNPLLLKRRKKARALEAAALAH

The target in data set [2] is T1, MAP kinase-activated protein kinase 2. In words: Inhibition of MK2 in human THP1 cells assessed as inhibition of LPS-induced HSP27 Ser78 phosphorylation incubated for 60 mins prior to LPS-induction measured after 60 mins. It counts as cell-based, THP-1.
Target sequence in this assay (P49137 whole entry): as above
Data set [3] in a line: Clearance in rat hepatocyte assessed per million cells. It counts as ADME, cell-based. The conditions noted are these: hepatocytes, read-out: CLH.
Data set [4] relates to Caco-2. Briefly: Permeability across human Caco2 cells. It counts as ADME, cell-based. A general note: Passage across Caco-2 layers is used to estimate intestinal permeability.
Data set [5] is described as follows: Solubility of the compound in 10 mM sodium phosphate buffer at pH 7.4. It counts as physicochemical.
Data set [6] in a line: Solubility of the compound in 2% DMSO at pH 7.4. It counts as physicochemical.
Data set [7] in a line: Plasma protein binding in human. It counts as ADME, cell-free. The conditions noted are these: read-out: PPB (converted).
Data set [8] is described as follows: Plasma protein binding in rat. Type of data set: ADME, cell-free. The conditions noted are these: read-out: PPB (converted).
Data set [9] concerns the target T1, MAP kinase-activated protein kinase 2. Briefly: Non-competitive inhibition of MK2 using 5TAMRA-KKLNRTLSVA-COOH as substrate by immobilized metal ion affinity-based fluorescence polarization assay in presence of 1 to 100 uM ATP.
Target sequence in this assay (P49137 whole entry, looked up): as the sequence (P49137 whole entry) above

Converted amounts (≈) assume the structure as drawn. The source made the active and inactive calls. The rule behind the calls is not given here.

As usually defined, the IC50 is the concentration that inhibits the measured activity by half. The term EC50 denotes the concentration needed to bring the measured effect to its halfway point. Regarding `Fc1ccc(-c2ccc(C3=NOC(c4ccccc4-c4cncnc4)N3c3ccc(N4CCNCC4)cc3)o2)cc1` (stereo not drawn), the IC50 in [1] was found to be 50 nM. Besides, the EC50 in data set [2] worked out at 760 nM.

As to `Clc1ccc(-c2ccc(C3=NOC(c4ccccc4-c4cncnc4)N3c3ccc(N4CCNCC4)cc3)o2)cc1Cl` (stereo not drawn), the concentration for half-maximal inhibition (IC50) in data set [1] was 970 nM.

On to `Fc1cc(F)cc(C2ON=C(c3ccc(-c4ccc(Cl)cc4)o3)N2c2ccc(N3CCNCC3)cc2)c1` (stereo not drawn), for which the IC50 in data set [1] was determined as 190 nM.

In the case of `Clc1ccc(-c2ccc(C3ON=C(c4ccccc4)N3c3ccc(N4CCNCC4)cc3)o2)cc1` (stereo not drawn), the IC50 in data set [1] amounted to 3700 nM.

On to `Clc1ccc(-c2ccc(C3=NOC(c4cnc[nH]4)N3c3ccc(N4CCNCC4)cc3)o2)cc1` (stereo not drawn), for which the half-maximal inhibitory concentration (IC50) in data set [1] turned out to be 70 nM. Besides, the EC50 in [2] is 2400 nM.

As to `Clc1cccc(-c2ccc(C3=NOC(c4ccccc4-c4cncnc4)N3c3ccc(N4CCNCC4)cc3)o2)c1` (stereo not drawn), in data set [1], the IC50 was 1300 nM.

For the compound `c1ccc(C2ON=C(c3ccc(-c4ccncc4)o3)N2c2ccc(N3CCNCC3)cc2)c(-c2cncnc2)c1` (stereo not drawn), the IC50 in [1] was 790 nM.

One may read the solubility as how much of the substance goes into solution per volume. For `N#Cc1ccc(-c2ccc(C3=NOC(c4ccccc4-c4cncnc4)N3c3ccc(N4CCNCC4)cc3)o2)cc1` (stereo in doubt; 38) [listing 1 of 2 here], in data set [3], the hepatocyte CLint came out at 35 µL/min/1e6 cells. Also, the permeability result in data set [4] is listed as “permeable”. Also, the half-inhibitory concentration (IC50) in data set [1] was 6 nM. Also, the EC50 in [2] turned out to be 170 nM. In addition, the solubility in data set [5] and in data set [6] was 20 µM (≈ 11.1 µg/mL) throughout. The fraction unbound is 0.035 in data set [7] and 0.031 in [8].

As to `Clc1ccc(-c2ccc(-c3cc(-c4ccc(N5CCNCC5)cc4)on3)o2)cc1`, the 50% inhibitory concentration (IC50) in data set [1] was more than 10000 nM.

As to `Clc1ccc(-c2ccc(-c3nocc3-c3ccc(N4CCNCC4)cc3)o2)cc1`, the half-maximal inhibitory concentration (IC50) in data set [1] came to 3400 nM.

Turning to `Clc1ccc(-c2ccc(C3=NOC(c4ccncn4)N3c3ccc(N4CCNCC4)cc3)o2)cc1` (stereo not drawn), in [1], the IC50 is 60 nM.

In the case of `FC1(F)CCN(c2ccc(N3C(c4ccc(-c5ccc(Cl)cc5)o4)=NOC3c3ccncc3)cc2)CC1` (stereo not drawn), the IC50 in [1] was more than 10000 nM.

In the case of `N#Cc1ccc(-c2ccc(C3=NOC(c4ccccc4-c4cncnc4)N3c3ccc(N4CCNCC4)cc3)o2)cc1` (single isomer, unassigned; enantiomer 2), in [1], the IC50 was determined as 340 nM.

As to `Clc1ccc(-c2ccc(C3=NOCCCN3c3ccc(N4CCNCC4)cc3)o2)cc1`, the 50% inhibitory concentration (IC50) in data set [1] is 1400 nM.

With `Fc1ccc(C2ON=C(c3ccc(-c4ccc(Cl)cc4)o3)N2c2ccc(N3CCNCC3)cc2)cc1` (stereo not drawn), the IC50 in data set [1] was determined as 160 nM.

As for `Clc1ccc(-c2ccc(C3=NOC(c4ccncc4)N3c3ccc(N4CCNCC4)cc3)o2)cc1` (stereo not drawn), the half-inhibitory concentration (IC50) in [1] worked out at 30 nM. Besides, the EC50 in [2] came to 2700 nM.

Consider `Fc1cc(-c2ccc(C3=NOC(c4ccccc4-c4cncnc4)N3c3ccc(N4CCNCC4)cc3)o2)ccc1Cl` (stereo not drawn), for which the IC50 in data set [1] came to 220 nM.

As to `CNC(=O)c1ccc(-c2ccc(C3=NOC(c4ccccc4-c4cncnc4)N3c3ccc(N4CCNCC4)cc3)o2)cc1` (stereo not drawn), the concentration for half-maximal inhibition (IC50) in data set [1] was more than 10000 nM.

Consider `N#Cc1cccc(-c2ccc(C3=NOC(c4ccccc4-c4cncnc4)N3c3ccc(N4CCNCC4)cc3)o2)c1` (stereo not drawn), for which the IC50 in data set [1] was 5300 nM.

On to `Clc1ccc(-c2ccc(C3=NOC(c4ccccn4)N3c3ccc(N4CCNCC4)cc3)o2)cc1` (stereo not drawn), for which the IC50 in [1] is 30 nM. The EC50 in data set [2] is 3000 nM.

With `Clc1ccc(-c2ccc(C3=NOC(c4ccncc4)N3c3ccc(C4CCNCC4)cc3)o2)cc1` (stereo not drawn), in data set [1], the half-maximal inhibitory concentration (IC50) stood at 190 nM.

`N#Cc1ccc(-c2ccc(C3=NOC(c4ccccc4-c4cncnc4)N3c3ccc(N4CCNCC4)cc3)o2)cc1` (stereo in doubt; 38) [listing 2 of 2 here]: in data set [9], the inhibition entry was “Active”.

Regarding `Clc1ccc(-c2ccc(C3=NOC(c4ccncc4)N3Cc3ccc(N4CCNCC4)cc3)o2)cc1` (stereo not drawn), the 50% inhibitory concentration (IC50) in data set [1] was more than 10000 nM.

For `COc1ccc(-c2ccc(C3=NOC(c4ccccc4-c4cncnc4)N3c3ccc(N4CCNCC4)cc3)o2)cc1` (stereo not drawn), the IC50 in data set [1] was found to be 310 nM.

Consider `O=c1onc(-c2ccc(-c3ccc(Cl)cc3)o2)n1-c1ccc(N2CCNCC2)cc1`, for which, in [1], the IC50 worked out at 6200 nM.

With `N#Cc1ccc(-c2ccc(C3=NOC(c4ccccc4-c4cncnc4)N3c3ccc(N4CCNCC4)cc3)o2)cc1` (stereo in doubt; 33), in data set [1], the IC50 came to 8 nM. Also, in [2], the EC50 amounted to 1200 nM.

Consider `Fc1ccc(C2ON=C(c3ccc(-c4ccc(Cl)cc4)o3)N2c2ccc(N3CCNCC3)cc2)c(F)c1` (stereo not drawn), for which the concentration for half-maximal inhibition (IC50) in [1] amounted to 100 nM.

As for `Clc1ccc(-c2ccc(C3=NOC(c4cccnc4)N3c3ccc(N4CCNCC4)cc3)o2)cc1` (stereo not drawn), the 50% inhibitory concentration (IC50) in data set [1] worked out at 50 nM.

For the compound `Fc1ccc(C2ON=C(c3ccc(-c4ccc(Cl)cc4)o3)N2c2ccc(N3CCNCC3)cc2)nc1` (stereo not drawn), in [1], the IC50 amounted to 60 nM. For the same compound, in data set [2], the half-maximal effective concentration (EC50) stood at 3700 nM.

In the case of `N#Cc1ccc(-c2ccc(C3=NOCCN3c3ccc(N4CCNCC4)cc3)o2)cc1`, the IC50 in [1] is 110 nM.
